Series [1] in a line: Tissue binding assay, brain homogenate (equilibrium dialysis). Format: in vitro ADME. The following applies: dialysis 4 hours at 37° C., dilution factor 4. On the procedure: (§1) Buffer preparation. A basic solution was prepared by dissolving 14.2 g/L Na2HPO4 and 8.77 g/L NaCl in deionized H2O. An acidic solution was prepared by dissolving 15.6 g/L NaH2PO4·2H2O and 8.77 g/L NaCl in deionized H2O. Using the acidic solution, the basic solution was then titrated to pH 7.4±0.1 and stored at 4° C. for up to 1 month. The stop solution was 100% CH3CN containing 200 ng/mL tolbutamide, 200 ng/mL labetalol and 50 ng/mL metformin.
(§2) Test method. Dialysis membrane strips were soaked in ultra-pure water at room temperature for ˜1 hour. Each membrane strip containing 2 membranes was separated and soaked in 20:80 EtOH/H2O (v/v) for ˜20 min, after which they were ready for use or were stored in the solution at 2-8° C. for up to 1 month. Prior to the experiment, the membrane was rinsed and soaked for 20 min in ultra-pure water. On the day of experiment, brain homogenate was thawed in a water bath at room temperature and incubated at 37° C. for 10 min before use. Test and control compounds were dissolved in DMSO to achieve 10 mM stock solutions. DMSO working solutions were prepared at 400 μM by diluting 10 μL of stock solution. To prepare the time zero (t=0) samples to be used for recovery determination, 50 μL aliquots of loading matrix were transferred in triplicate to the sample collection plate. The samples were immediately matched with opposite blank buffer to obtain a final volume of 100 μL of 1:1 matrix/dialysis buffer (v/v) in each well. 500 μL of stop solution were added to these t=0 samples. They were then stored at 2-8° C. pending further processes along with other post-dialysis samples. To load the dialysis device, an aliquot of 150 μL of the loading matrix was transferred to the donor side of each dialysis well in triplicate, and 150 μL of the dialysis buffer was loaded to the receiver side of the well. The dialysis plate was placed in a humidified incubator at 37° C. with 5% CO2 on a shaking platform that rotated slowly (about 100 rpm) for 4 hours. At the end of the dialysis, aliquots of 50 μL of samples were taken from both the buffer side and the matrix side of the dialysis device. These samples were transferred into new 96-well plates. Each sample was mixed with an equal volume of opposite blank matrix (buffer or matrix) to reach a final volume of 100 μL of 1:1 matrix/dialysis buffer (v/v) in each well. All samples were further processed by adding 500 μL of stop solution containing internal standards. The mixture was vortexed and centrifuged at 4000 rpm for about 20 min. An aliquot of 100 μL of supernatant of all the samples was then removed for LC-MS/MS analysis. The single blank samples were prepared by transferring 50 μL of blank matrix to a 96-well plate and adding 50 μL of blank PBS buffer to each well. Then the matrix-matched samples were further processed by adding 500 μL of stop solution containing internal standards, following the same sample processing method as the dialysis samples.
(§3) Data analysis. The % undiluted unbound, % undiluted bound and % recovery were calculated using the following equations:
(§4) % Undiluted Unbound=100*1/D/((1/(F/T)−1)+1/D)
(§5) % Undiluted Bound=100−% Undiluted Unbound
(§6) where F is the analyte concentration or peak area ratio of analyte/internal standard on the buffer (receiver) side of the membrane; T is the analyte concentration or peak area ratio of analyte/internal standard on the matrix (donor) side of the membrane; To is the analyte concentration or the peak area ratio of analyte/internal standard in the loading matrix sample at time zero; and D is the dilution factor determined as 4 in this assay.
A general note: In equilibrium dialysis free small molecules cross a membrane that holds back macromolecules.

Series [2] in a line: Tissue binding assay, plasma (equilibrium dialysis). Format: in vitro ADME. Particulars: dialysis 4 hours at 37° C. As to the method:
[The source words this procedure for another target and reports this target under the same test.] as §1, §2, §3, §4, §5, §6

Series [3] is described as follows: PK brain permeability in C57BL/6 mice after single oral gavage. Format: in vivo. Particulars: male, C57BL/6, mouse, 2 hours post dose; for concentration at 2 h: po, 10 mg/kg; for Kpu,u (unbound brain/plasma partition coefficient) at 2 h: oral 10 mg/kg, read-out: Kpu,u (unbound partitioning coefficient, Cb,u/Cp,u). As to the method: The distribution of compounds into the brain in vivo was determined in C57BL/6 mice following single oral (po) gavage administration.
Test compounds were formulated at 1 mg/mL in 0.5% HPMC E4 M, 0.2% Tween 80 in water to achieve solutions or homogenous suspensions suitable for po administration.
Formulations were administered to 3 male C57BL/6 mice at a volume of 10 mL/kg resulting in a dose level of 10 mg/kg. Blood samples were collected at 1 and 2 hours post dose into tubes containing K2EDTA as anticoagulant, processed to plasma and stored at −60° C. or lower until LC-MS/MS analysis. Brains were harvested 2 hours post dose, rinsed with saline, dried, weighed and homogenised under ice cold conditions. Brain homogenates were stored at −60° C. or lower until LC-MS/MS analysis.
Dose formulation concentrations were verified using a LC-UV or LC-MS/MS method. Test compound concentrations in plasma and brain homogenate were quantitatively determined using LC-MS/MS methods developed in individual matrices against calibration curves with QC samples included and acceptance criteria as per CRO SOPs. Concentrations in brain homogenate were corrected for the dilution factor used to prepare the homogenate to give concentrations in whole brain tissue.
Plasma and brain concentration versus time data were reported and plotted in excel. The brain to plasma ratio at 2 hours post dose was calculated for each animal using the following equation:
Brain:plasma=brain concentration (ng/g) at 2 h/plasma concentration (ng/mL) at 2 h
As only unbound test compound is available to exert an effect on the target, unbound plasma (Cp,u) and unbound brain (Cb,u) concentrations were calculated by correcting the total concentrations for the unbound fraction in plasma (fu,p) or brain (fu,b) determined from in vitro plasma protein or brain tissue binding assays using the following equations: […]
The unbound partitioning coefficient (Kpu,u) was then calculated based on the ratio of Cb,u to Cp,u using the following equation: […]
In these studies, mice were orally administrated a 10 mg/kg dose and sacrificed 2 hours post dose and tissue samples (brain homogenate and plasma) were analyzed subsequently as described above.

The target of another series is Recombinant human CD38 (Homo sapiens (Human), UniProt P28907). The series is described as follows: Human CD38 hydrolase assay (fluorescence, ε-NAD substrate). The format is biochemical. Particulars: recombinant human CD38 0.8 nM, 4 μM ε-NAD, 30 min preincubation at 25° C., pH 7.4. As to the method:
(§7) The ability of test compounds to inhibit human CD38 hydrolase activity was measured in a fluorescence-based assay using non-physiological NAD^+ substrate analogue 1,N^6-etheno NAD^+ (ε-NAD). Recombinant human CD38 (0.8 nM) was preincubated with test compounds in 384-well black microplates for 30 min at 25° C. in PBS (—Ca^2+/Mg^2+) containing 0.005% BSA (pH 7.4). CD38 hydrolase activity was initiated by addition of 4 μM ε-NAD, which yields the fluorescent product 1,N^6-etheno ADP-ribose. Formation of fluorescent product was followed using ClarioStar Plus (BMG) microplate reader by reading fluorescence (excitation λ=300 nm; emission λ=410 nm) at two time points, one immediately after substrate addition (t=0) and one at 10 min (t=10).
Data was analysed by subtracting the values detected at t=0 from t=10 to correct for variation in baseline fluorescence. Fluorescence values were converted to percent inhibition using the average of high signal (CD38 and ε-NAD) and low signal (CD38 and ε-NAD in the presence of a tool CD38 inhibitor) control wells. IC50 values were determined from a 10-point, half log concentration response curve with a four-parameter logistic equation.

The target in a further series is Recombinant mouse CD38 (Mus musculus (Mouse), UniProt P56528). Kind of series: Mouse CD38 hydrolase assay (fluorescence, ε-NAD substrate). The format is biochemical. The following applies: recombinant mouse CD38 0.4 nM, 12 μM ε-NAD, 30 min preincubation at 25° C., pH 7.4. As to the method: as §7, with “inhibit mouse” for “inhibit human”, “Recombinant mouse” for “Recombinant human”, “CD38 (0.4” for “CD38 (0.8”, “of 12” for “of 4”, “at 6” for “at 10”, “min (t=6).” for “min (t=10).”
Sequence of Recombinant mouse CD38 (P56528 whole entry): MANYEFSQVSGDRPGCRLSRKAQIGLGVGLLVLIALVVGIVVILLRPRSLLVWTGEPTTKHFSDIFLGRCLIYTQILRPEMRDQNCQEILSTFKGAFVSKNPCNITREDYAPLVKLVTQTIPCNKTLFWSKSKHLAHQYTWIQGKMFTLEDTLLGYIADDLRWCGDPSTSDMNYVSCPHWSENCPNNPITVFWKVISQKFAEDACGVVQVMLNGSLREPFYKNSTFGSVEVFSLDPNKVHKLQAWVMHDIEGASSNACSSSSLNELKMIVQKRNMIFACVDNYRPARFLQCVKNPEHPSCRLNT
Data was analysed by subtracting the values detected at t=0 from t=6 to correct for variation in baseline fluorescence, and fluorescence values were converted to percent inhibition using the average of high signal (CD38 and ε-NAD) and low signal (CD38 and ε-NAD in the presence of a tool CD38 inhibitor) control wells. IC50 values were determined from a 10-point, half log concentration response curve with a four-parameter logistic equation.

Setting [4] is: brain, read-out: total brain conc.
Where [5] appears, read: brain, total corrected for unbound fraction in brain, read-out: free brain conc.
Where [6] appears, read: plasma, read-out: total plasma conc.
Setting [7] is: plasma, total corrected for unbound fraction in plasma, read-out: free plasma conc.

pIC50: −log10 of the molar value. Structures can show the parent of a compound that is named as a salt. Where two headings read alike, the source gives them in different places. A value given as a limit tells only on which side of the number the result lay.

Sequence of Recombinant human CD38 (P28907 whole entry): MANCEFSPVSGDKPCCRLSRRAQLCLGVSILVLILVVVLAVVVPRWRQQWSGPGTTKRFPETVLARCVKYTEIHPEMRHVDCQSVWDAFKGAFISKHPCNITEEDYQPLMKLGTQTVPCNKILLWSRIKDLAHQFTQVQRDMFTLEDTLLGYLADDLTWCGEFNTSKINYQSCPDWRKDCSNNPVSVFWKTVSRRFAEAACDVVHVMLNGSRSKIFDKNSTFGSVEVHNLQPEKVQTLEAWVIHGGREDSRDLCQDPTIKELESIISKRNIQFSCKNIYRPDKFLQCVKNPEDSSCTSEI

With `Cc1cc(C(=O)N[C@H]2CC[C@H](OC(F)F)CC2)nc(-n2ccnc2)n1` [Example 17, N-((1r,4r)-4-(difluoromethoxy)cyclohexyl)-2-(1H-imidazol-1-yl)-6-methyl-pyrimidine-4-carboxamide, reference compound], the “Mouse brain (% unbound)” value in series [1] was 13.6 % unbound. In series [2], the “Mouse plasma (% unbound)” value came out at 6.9 % unbound. For the same compound, the concentration at 2 h in series [3] (setting [4]) was 77 nM; in series [3] (setting [5]) it was 10 nM; in series [3] (setting [6]) it was 1680 nM; in series [3] (setting [7]), 115 nM. The Kpu,u (unbound brain/plasma partition coefficient) at 2 h in series [3] worked out at 0.08.
In the case of `Cc1cc(C(=O)N[C@H]2CC[C@](C)(O)CC2)nc(-n2ccnc2)n1` [Example 18, N-((1r,4r)-4-hydroxy-4-methylcyclohexyl)-2-(1H-imidazol-1-yl)-6-methyl-pyrimidine-4-carboxamide, reference compound], in series [1], the “Mouse brain (% unbound)” value was 28.4 % unbound. The “Mouse plasma (% unbound)” value in series [2] is recorded as 25.3 % unbound. In addition, the concentration at 2 h is 430 nM in series [3] (setting [4]), 122 nM in series [3] (setting [5]), 13000 nM in series [3] (setting [6]) and 3290 nM in series [3] (setting [7]). Also, the Kpu,u (unbound brain/plasma partition coefficient) at 2 h in series [3] is 0.03.
For `O=C(N[C@H]1CC[C@H](NCC(F)F)CC1)c1cc(C2CC2)cc(-n2ccnc2)n1` [Example 16, 4-cyclopropyl-N-((1r,4r)-4-((2,2-difluoroethyl)amino)cyclohexyl)-6-(1H-imidazol-1-yl)picolinamide], the pIC50 is not below 6.00 on Recombinant human CD38 and not below 7.40 at Recombinant mouse CD38.
The like results for `Cc1cc(C(=O)N[C@H]2CC[C@H](N)CC2)nc(-n2ccnc2)n1` [Example 27, N-((1r,4r)-4-aminocyclohexyl)-2-(1H-imidazol-1-yl)-6-methyl-pyrimidine-4-carboxamide Formate] were, in that order, not below 6.00 and not below 7.40.
The like results for `Cc1cc(C(=O)N[C@H]2CC[C@H](N[C@@H](C)C(F)(F)F)CC2)nc(-n2ccnc2)n1` [Example 22, 2-(1H-imidazol-1-yl)-6-methyl-N-((1S,4r)-4-(((S)-1,1,1-trifluoropropan-2-yl)amino)cyclohexyl)pyrimidine-4-carboxamide] were, in that order, not below 7.40 and not below 7.40.

By pIC50 is commonly meant −log10 of the IC50, conventionally taken in molar units.

Values taken from patent US20250019369A1, “N-(4-aminocyclohexyl)pyrimidine-4-carboxamide derivatives as CD38 inhibitors” (Cerevance, Inc., priority 2021, published 2025).
